Assay results as given in patent publication US7041290B2, “Molecules and methods for inhibiting shedding of KIM-1” (Biogen Idec MA Inc., priority 2001, dated 2006).

Assays:
[1] = test system: shedding of KIM-1, renal carcinoma cells 769-P; assay: Shedding of KIM-1 in 769-P cell culture, soluble KIM-1 by ELISA; assay type: cell-based, human; details: 769-P cells, 28 hours; for inhibition of KIM-1 shedding: 32 μM
Experimental: BB-94 (batismatat) and GM6001 (Ilomastat), are two broad spectrum hydroxamic acid-based zinc metalloproteinase inhibitors which inhibit several matrix metalloproteinases (MMP) (20). BB-94 is also a potent inhibitor of TACE (TNF alpha converting enzyme) (18). The activity of these two inhibitors on the shedding of KIM-1 in cell culture was examined.
(§1) Stock solutions of BB-94 and GM6001 were maintained in DMS0 at a concentration of 70 mM for BB-94 and 2.5 mM for GM6001. Compounds were diluted directly into fresh medium to concentrations ranging from 0.5 μm to 32 μm. Renal carcinoma cells 769-P were grown in RPMI medium supplemented with 10% fetal bovine serum, 10 mM HEPES, and 1 mM sodium pyruvate, and in the presence of various concentrations of BB-94 and GM6001 for 28 hours. […] The amount of soluble KIM-1 released into the extracellular milieu during the 28h-period was measured by ELISA (FIG. 5).

[2] = test system: Renal carcinoma cells 769-P; assay: Cell viability with the mitochondria dye MTT; assay type: cell-based, human; details: end of the 28h-culture period, 0.5 to 32 μm
Experimental: as §1

| IC50 [1] [µM] | IC50 ([1]; Homo sapiens) [µM] | SMILES | inhibition of KIM-1 shedding [1] | cytotoxicity (cell viability, MTT) [2] |
| --- | --- | --- | --- | --- |
| ~1 |  | CNC(=O)[C@H](Cc1ccccc1)NC(=O)[C@H](CC(C)C)[C@H](CSc1cccs1)C(=O)NO [BB-94, batismatat] | complete inhibition | absence of cytotoxicity |
|  | ~4 | CNC(=O)[C@H](Cc1c[nH]c2ccccc12)NC(=O)[C@@H](CC(=O)NO)CC(C)C [GM6001, Ilomastat] | complete inhibition | absence of cytotoxicity |
